Experiments:
corn = assay: Test B pre/postemergence corn; format: in vivo, Zea mays
Summary of the method: (§1)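 Test chemicals in a non-phytotoxic solvent mixture with surfactant were sprayed preemergence onto planted seeds and postemergence onto plants 2 to 18 cm tall (1- to 4-leaf stage). After twelve to sixteen days in a greenhouse, injury was visually rated against untreated controls from 0 (no effect) to 10 (complete control).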

surinam grass = assay: Test B pre/postemergence surinam grass; format: in vivo, Brachiaria decumbens
Summary of the method: as §1

blackgrass = assay: Test B pre/postemergence blackgrass; format: in vivo, Alopecurus myosuroides
Summary of the method: as §1

morningglory = assay: Test B pre/postemergence morningglory; format: in vivo, Ipomoea hederacea
Summary of the method: as §1

rice = assay: Test B flood test rice; format: in vivo, Oryza sativa
Summary of the method: (§2)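 Read-out is a visual response score from 0 (no effect) to 10 (complete control), assigned by comparison with untreated controls. Treatment was applied at the 2-leaf stage, and plants stayed in the greenhouse for twelve to sixteen days before scoring.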

bamyardgrass = assay: Test B flood test barnyardgrass; format: in vivo, Echinochloa crus-galli
Summary of the method: as §2

wheat = assay: Test B pre/postemergence wheat; format: in vivo, Triticum aestivum
Summary of the method: as §1

crabgrass = assay: Test B pre/postemergence crabgrass; format: in vivo, Digitaria sanguinalis
Summary of the method: as §1

cocklebur = assay: Test B pre/postemergence cocklebur; format: in vivo, Xanthium strumarium
Summary of the method: as §1

pigweed = assay: Test B pre/postemergence pigweed; format: in vivo, Amaranthus retroflexus
Summary of the method: as §1

smallflower flatsedge = assay: Test B flood test smallflower flatsedge; format: in vivo, Cyperus difformis
Summary of the method: as §2

bedstraw = assay: Test B pre/postemergence bedstraw; format: in vivo, Galium aparine
Summary of the method: as §1

wild oat = assay: Test B pre/postemergence wild oat; format: in vivo, Avena fatua
Summary of the method: as §1

velvetleaf = assay: Test B pre/postemergence velvetleaf; format: in vivo, Abutilon theophrasti
Summary of the method: as §1

giant foxtail = assay: Test B pre/postemergence giant foxtail; format: in vivo, Setaria faberii
Summary of the method: as §1

soybean = assay: Test B pre/postemergence soybean; format: in vivo, Glycine max
Summary of the method: as §1

[1] = Postemergence, Rate 62 g/ha, scale 0 to 10, 0 is no effect, 10 is complete control
[2] = Postemergence, Rate 250 g/ha, scale 0 to 10, 0 no effect, 10 complete control
[3] = Preemergence, Rate 62 g/ha, scale 0 to 10 (0 no effect, 10 complete control)
[4] = Preemergence, Rate 125 g/ha, scale 0 to 10 (0 no effect, 10 complete control)
[5] = Preemergence, Rate 250 g/ha, scale of 0 to 10 where 0 is no effect and 10 is complete control
[6] = Preemergence, Rate 500 g/ha, scale 0 (no effect) to 10 (complete control)
[7] = Rate 125 g/ha, Postemergence, scale 0 to 10, 0 no effect, 10 complete control
[8] = Rate 500 g/ha, Postemergence, scale 0 to 10, 0 no effect, 10 complete control
[9] = Rate 125 g/ha, Postemergence section (flood test species), scale 0 to 10, 0 no effect, 10 complete control
[10] = Rate 500 g/ha, listed under Postemergence (flood test species), scale 0 to 10, 0 no effect, 10 complete control
[11] = flood test, listed under Postemergence, Rate 250 g/ha, scale 0 to 10, 0 no effect, 10 complete control

CCN(CC)C(=O)n1oc(=O)n(Cc2cccs2)c1=O [Compound 77]
3: Crabgrass plant response rating (crabgrass; [6]) | S. Flatsedge plant response rating (smallflower flatsedge; [10]) | Wild oats plant response rating (wild oat; [8]) | Velvetleaf plant response rating (velvetleaf; [6]) | Plant response rating, Giant foxtail (giant foxtail; [5])
1: Soybean plant response rating (soybean; [2]) | Soybean plant response rating (soybean; [8])
0: Corn plant response rating (corn; [1]) | Corn plant response rating (corn; [2]) | Corn plant response rating (corn; [3]) | Plant response rating, Corn (corn; [4]) | Plant response rating, Corn (corn; [5]) | Corn plant response rating (corn; [6]) | Corn plant response rating (corn; [7]) | Corn plant response rating (corn; [8]) | B. signalgrass plant response rating (surinam grass; [1]) | B. signalgrass plant response rating (surinam grass; [2]) | B. signalgrass plant response rating (surinam grass; [3]) | Plant response rating, B. signalgrass (surinam grass; [4]) | Plant response rating, B. signalgrass (surinam grass; [5]) | B. signalgrass plant response rating (surinam grass; [6]) | B. signalgrass plant response rating (surinam grass; [7]) | Blackgrass plant response rating (blackgrass; [1]) | Blackgrass plant response rating (blackgrass; [2]) | Blackgrass plant response rating (blackgrass; [3]) | Plant response rating, Blackgrass (blackgrass; [4]) | Plant response rating, Blackgrass (blackgrass; [5]) | Blackgrass plant response rating (blackgrass; [6]) | Blackgrass plant response rating (blackgrass; [7]) | Morningglory plant response rating (morningglory; [1]) | Morningglory plant response rating (morningglory; [2]) | Morningglory plant response rating (morningglory; [3]) | Plant response rating, Morningglory (morningglory; [4]) | Plant response rating, Morningglory (morningglory; [5]) | Morningglory plant response rating (morningglory; [6]) | Morningglory plant response rating (morningglory; [7]) | Morningglory plant response rating (morningglory; [8]) | Rice plant response rating (rice; [1]) | Rice plant response rating (rice; [9]) | Rice plant response rating (rice; [10]) | Rice plant response rating (rice; [11]) | Barnyardgrass plant response rating (bamyardgrass; [1]) | Barnyardgrass plant response rating (bamyardgrass; [9]) | Barnyardgrass plant response rating (bamyardgrass; [10]) | Barnyardgrass plant response rating (bamyardgrass; [11]) | Wheat plant response rating (wheat; [1]) | Wheat plant response rating (wheat; [2]) | Wheat plant response rating (wheat; [3]) | Plant response rating, Wheat (wheat; [4]) | Plant response rating, Wheat (wheat; [5]) | Wheat plant response rating (wheat; [6]) | Wheat plant response rating (wheat; [7]) | Crabgrass plant response rating (crabgrass; [1]) | Crabgrass plant response rating (crabgrass; [2]) | Crabgrass plant response rating (crabgrass; [3]) | Crabgrass plant response rating (crabgrass; [7]) | Crabgrass plant response rating (crabgrass; [8]) | Cocklebur plant response rating (cocklebur; [1]) | Cocklebur plant response rating (cocklebur; [2]) | Cocklebur plant response rating (cocklebur; [3]) | Plant response rating, Cocklebur (cocklebur; [4]) | Plant response rating, Cocklebur (cocklebur; [5]) | Cocklebur plant response rating (cocklebur; [6]) | Cocklebur plant response rating (cocklebur; [7]) | Redroot pigweed plant response rating (pigweed; [1]) | Redroot pigweed plant response rating (pigweed; [2]) | Redroot pigweed plant response rating (pigweed; [3]) | Plant response rating, Redroot pigweed (pigweed; [4]) | Plant response rating, Redroot pigweed (pigweed; [5]) | Redroot pigweed plant response rating (pigweed; [6]) | Redroot pigweed plant response rating (pigweed; [7]) | Redroot pigweed plant response rating (pigweed; [8]) | S. Flatsedge plant response rating (smallflower flatsedge; [1]) | S. Flatsedge plant response rating (smallflower flatsedge; [9]) | S. Flatsedge plant response rating (smallflower flatsedge; [11]) | Bedstraw plant response rating (bedstraw; [1]) | Bedstraw plant response rating (bedstraw; [2]) | Bedstraw plant response rating (bedstraw; [3]) | Plant response rating, Bedstraw (bedstraw; [4]) | Plant response rating, Bedstraw (bedstraw; [5]) | Bedstraw plant response rating (bedstraw; [6]) | Bedstraw plant response rating (bedstraw; [7]) | Bedstraw plant response rating (bedstraw; [8]) | Wild oats plant response rating (wild oat; [1]) | Wild oats plant response rating (wild oat; [2]) | Wild oats plant response rating (wild oat; [3]) | Plant response rating, Wild oats (wild oat; [4]) | Plant response rating, Wild oats (wild oat; [5]) | Wild oats plant response rating (wild oat; [6]) | Wild oats plant response rating (wild oat; [7]) | Velvetleaf plant response rating (velvetleaf; [1]) | Velvetleaf plant response rating (velvetleaf; [2]) | Velvetleaf plant response rating (velvetleaf; [3]) | Plant response rating, Velvetleaf (velvetleaf; [4]) | Plant response rating, Velvetleaf (velvetleaf; [5]) | Velvetleaf plant response rating (velvetleaf; [7]) | Velvetleaf plant response rating (velvetleaf; [8]) | Giant foxtail plant response rating (giant foxtail; [1]) | Giant foxtail plant response rating (giant foxtail; [2]) | Giant foxtail plant response rating (giant foxtail; [3]) | Plant response rating, Giant foxtail (giant foxtail; [4]) | Giant foxtail plant response rating (giant foxtail; [7]) | Soybean plant response rating (soybean; [1]) | Soybean plant response rating (soybean; [3]) | Plant response rating, Soybean (soybean; [4]) | Plant response rating, Soybean (soybean; [5]) | Soybean plant response rating (soybean; [6]) | Soybean plant response rating (soybean; [7])
4: Blackgrass plant response rating (blackgrass; [8]) | Wheat plant response rating (wheat; [8]) | Cocklebur plant response rating (cocklebur; [8])
2: B. signalgrass plant response rating (surinam grass; Rate 500 g/ha, Postemergence, scale of 0 to 10 where 0 is no effect and 10 is complete control) | Plant response rating, Crabgrass (crabgrass; [4]) | Plant response rating, Crabgrass (crabgrass; [5]) | Giant foxtail plant response rating (giant foxtail; [8])
5: Giant foxtail plant response rating (giant foxtail; [6])

From patent US6737383B1, “Herbicidal oxadiazolidines” (priority 1999, dated 2004)
